# Measurements published in patent US6495591B1, “Fungal efflux pump inhibitors” (Essential Therapeutics, Inc., priority 1997, dated 2002).
# Like-named read-outs stand apart in the source and are kept apart here.
# Key:
# C. albicans BEN up = assay: MacSynergy 3-D synergy volume, checkerboard (Table 13); type: cell-based
# Excerpt: (§1) The activity of one milbemycin was also studied in checker-board assays. […] It provides information on the extent of synergism between the two drugs and the concentrations at which synergism can be detected. Using differential surface analysis, pick of synergy volumes are quantified for each combination of drugs and strain tested in a traditional checkerboard assay (Table 13).
# C. krusei [1] = assay: as above; type: cell-based
# Excerpt: as §1
# [2] = test system: YEM 13 C. albicans BEN up; assay: microbe, parasite or virus in culture; type: cell-based; details: Candida albicans, read-out: FLU MIC
# [3] = test system: S. cerevisiae YEM-3 parent strain (no pump); assay: microbe, parasite or virus in culture; type: cell-based; details: Saccharomyces cerevisiae, read-out: MIC for the parent strain to fluconazole
# [4] = test system: C. albicans YEM-24 (CDR1, CDR2 deleted); assay: microbe, parasite or virus in culture; type: cell-based; details: Candida albicans, read-out: MIC Flu alone
# [5] = test system: C. albicans YEM-14 (low level CDR1 expressor); assay: microbe, parasite or virus in culture; type: cell-based; details: Candida albicans, read-out: MIC Flu alone
# [6] = test system: C. glabrata YEM-17 (CgCDR overexpressor); assay: microbe, parasite or virus in culture; type: cell-based; details: YEM-17; fluconazole alone
# [7] = test system: C. albicans YEM-12 (low level CDR1 expressor); assay: microbe, parasite or virus in culture; type: cell-based; details: Candida albicans, read-out: MIC Flu alone
# [8] = test system: C. glabrata YEM-19 (CgCDR overexpression, higher than YEM-17); assay: microbe, parasite or virus in culture; type: cell-based; details: YEM-19; fluconazole alone
# [9] = test system: C. albicans YEM-30 (wild-type, no pump deleted); assay: microbe, parasite or virus in culture; type: cell-based; details: Candida albicans, read-out: MIC Flu alone
# [10] = test system: C. albicans YEM-15 (CDR1 & CDR2 overexpressor); assay: microbe, parasite or virus in culture; type: cell-based; details: Candida albicans
# C. neoformans = assay: microbe, parasite or virus in culture; type: cell-based, Cryptococcus neoformans; details: Cryptococcus neoformans, read-out: Fluconazole MIC, alone
# [11] = test system: YEM 27 C. albicans ΔCDR1ΔCDR2 ΔBENΔFLU1; assay: microbe, parasite or virus in culture; type: cell-based; details: Candida albicans, read-out: FLU MIC
# C. krusei YEM-71 = assay: Broth dilution checkerboard, azoles and terbinafine with milbemycin α9 (Table 8); type: cell-based; details: Pichia kudriavzevii
# [12] = test system: C. albicans clinical isolates (n = 33); assay: microbe, parasite or virus in culture; type: cell-based; details: Candida albicans
# [13] = test system: C. albicans YEM-10 (low level CDR1 expressor); assay: microbe, parasite or virus in culture; type: cell-based; details: Candida albicans, read-out: MIC Flu alone
# [14] = test system: C. albicans YEM-21 (BEN deleted); assay: microbe, parasite or virus in culture; type: cell-based; details: Candida albicans, read-out: MIC Flu alone
# [15] = test system: C. glabrata YEM-17 (CgCDR overexpressor); assay: microbe, parasite or virus in culture; type: cell-based; details: Nakaseomyces glabratus
# YEM 30 C. albicans wt = assay: FEPI MIC with/without 1/8 fluconazole MIC at 24 hrs (Table 11); type: cell-based; details: Candida albicans, YEM 30
# [16] = test system: C. albicans, CDR1, CDR2, up; type: cell-based
# Excerpt: as §1
# C. glabrata, CgCDR up = type: cell-based
# Excerpt: as §1
# [17] = test system: C. albicans ΔCDR1 ΔCDR2 ΔBEN ΔFLU1; type: cell-based
# Excerpt: as §1
# YEM 51 C. glabrata wt = assay: FEPI MIC with/without 1/8 fluconazole MIC at 24 hrs (Table 11); type: cell-based; details: Nakaseomyces glabratus; YEM 51; NCCLS criteria for azoles; read-out: FLU MIC
# [18] = test system: YEM 15 C. albicans, CDR1CDR2 up; assay: microbe, parasite or virus in culture; type: cell-based; details: Candida albicans, read-out: FLU MIC
# [19] = test system: C. krusei YEM-52 (ATCC 90878), wild type; assay: Broth dilution MIC, fluconazole with/without milbemycin oxime (Table 6); type: cell-based; details: Pichia kudriavzevii, ATCC90878; YEM-52 (ATCC 90878); read-out: MIC Flu alone
# C. lipolytica = assay: microbe, parasite or virus in culture; type: cell-based; details: Yarrowia lipolytica, read-out: Fluconazole MIC, alone
# [20] = test system: S. cerevisiae YEM-37 overexpressing CDR2 (C. albicans); assay: microbe, parasite or virus in culture; type: cell-based; details: Saccharomyces cerevisiae
# [21] = test system: pCgBEN (MF) efflux pump in S. cerevisiae YEM-40; type: cell-based, C. glabrata
# [22] = test system: C. albicans YEM-20 (CDR1 deleted); assay: microbe, parasite or virus in culture; type: cell-based; details: Candida albicans, read-out: MIC Flu alone
# [23] = test system: YEM 24 C. albicans ΔCDR1, ΔCDR2; assay: microbe, parasite or virus in culture; type: cell-based; details: Candida albicans, read-out: FLU MIC
# [24] = test system: C. albicans YEM-27 (CDR1, CDR2, BEN, FLU1 deleted); assay: microbe, parasite or virus in culture; type: cell-based; details: Candida albicans, read-out: MIC Flu alone
# [25] = test system: C. glabrata YEM-18 (low level CgBEN and CgCDR expression); assay: microbe, parasite or virus in culture; type: cell-based; details: YEM-18; fluconazole alone
# [26] = test system: S. cerevisiae YEM-39 overexpressing CgCDR (C. glabrata); assay: microbe, parasite or virus in culture; type: cell-based; details: Saccharomyces cerevisiae
# [27] = test system: C. glabrata YEM-16 (low level CgBEN and CgCDR expression); assay: microbe, parasite or virus in culture; type: cell-based; details: YEM-16; fluconazole alone
# [28] = test system: C. albicans YEM-29 (BEN, FLU1 deleted); assay: microbe, parasite or virus in culture; type: cell-based; details: Candida albicans, read-out: MIC Flu alone
# YEM 53 C. krusei = assay: FEPI MIC with/without 1/8 fluconazole MIC at 24 hrs (Table 11); type: cell-based; details: Pichia kudriavzevii; YEM 53; NCCLS criteria for azoles; read-out: FLU MIC
# [29] = test system: S. cerevisiae YEM-1 overexpressing CDR1 (C. albicans); assay: microbe, parasite or virus in culture; type: cell-based; details: Saccharomyces cerevisiae
# C. tropicalis = assay: microbe, parasite or virus in culture; type: cell-based; details: Candida tropicalis, read-out: Fluconazole MIC, alone
# C. krusei [30] = assay: microbe, parasite or virus in culture; type: cell-based; details: Pichia kudriavzevii, read-out: Fluconazole MIC, alone
# [31] = test system: C. glabrata clinical isolates (n = 12); assay: microbe, parasite or virus in culture; type: cell-based; details: Nakaseomyces glabratus
# C. albicans, wt = assay: MacSynergy 3-D synergy volume, checkerboard (Table 13); type: cell-based
# Excerpt: as §1
# C. glabrata, wt = assay: as above; type: cell-based
# Excerpt: as §1
# [32] = read-out: Fluconazole MIC90, alone
structure (smiles),measurement,setting,value
"OC(Cn1cncn1)(Cn1cncn1)c1ccc(F)cc1F [Fluconazole, fluconazole, reference compound]","Synergy Volume, fluconazole + one milbemycin (FEPI, not named)",C. albicans BEN up,196
same,"Synergy Volume, fluconazole + one milbemycin (FEPI, not named)",C. krusei [1],1178
same,MIC,[2],64 µg/mL
same,MIC,[3],0.5 µg/mL
same,MIC,[4],0.125 µg/mL
same,MIC,[5],0.125 µg/mL
same,Fluconazole MIC with 0 μg/ml milbemycin β1,[6],64 µg/mL
same,MIC,[7],2 µg/mL
same,Fluconazole MIC with 0 μg/ml milbemycin β1,[8],128 µg/mL
same,MIC,[9],0.5 µg/mL
same,MIC,[10]; read-out: Fluconazole MIC,128 µg/mL
same,MIC,C. neoformans,> 128 µg/mL
same,MIC,[11],≤ 0.125 µg/mL
same,MIC,"C. krusei YEM-71; YEM71, read-out: Fluconazole MIC",128 µg/mL
same,MIC50,"[12]; read-out: Fluconazole MIC50, alone, C. albicans n = 33, MIC (80%) in YPD",1 µg/mL
same,MIC90,[12]; [32],> 128 µg/mL
same,MIC,[13],0.25 µg/mL
same,MIC,[14],0.25 µg/mL
same,MIC,[15]; read-out: Fluconazole MIC,128 µg/mL
same,MIC,"YEM 30 C. albicans wt; read-out: FLU MIC at 40 hrs, read at 40 hrs",64 µg/mL
same,MIC,"YEM 30 C. albicans wt; read at 24 hours, read-out: FLU MIC at 24 hours",0.5 µg/mL
same,"Synergy Volume, fluconazole + one milbemycin (FEPI, not named)",[16],2337
same,"Synergy Volume, fluconazole + one milbemycin (FEPI, not named)","C. glabrata, CgCDR up",1815
same,"Synergy Volume, fluconazole + one milbemycin (FEPI, not named)",[17],0.08
same,MIC,YEM 51 C. glabrata wt,64 µg/mL
same,MIC,[18],64 µg/mL
same,MIC,[19],64 µg/mL
same,MIC,C. lipolytica,128 µg/mL
same,MIC,[20]; read-out: Fluconazole MIC,4 µg/mL
same,Fluconazole MIC,[21],32 µg/mL
same,MIC,[22],0.125 µg/mL
same,MIC,[23],0.25 µg/mL
same,MIC,[24],0.03 µg/mL
same,Fluconazole MIC with 0 μg/ml milbemycin β1,[25],8 µg/mL
same,MIC,[26]; read-out: Fluconazole MIC,64 µg/mL
same,Fluconazole MIC with 0 μg/ml milbemycin β1,[27],16 µg/mL
same,MIC,[28],0.25 µg/mL
same,MIC,YEM 53 C. krusei,64 µg/mL
same,MIC,[29]; read-out: Fluconazole MIC,128 µg/mL
same,MIC,C. tropicalis,> 128 µg/mL
same,MIC,C. krusei [30],128 µg/mL
same,MIC50,"[31]; read-out: Fluconazole MIC50, alone",32 µg/mL
same,MIC90,[31]; [32],> 128 µg/mL
"CN(C/C=C/C#CC(C)(C)C)Cc1cccc2ccccc12 [Terbinafine, terbinafine]","Synergy Volume, terbinafine + one milbemycin (FEPI, not named)",C. albicans BEN up,500
same,"Synergy Volume, terbinafine + one milbemycin (FEPI, not named)",C. krusei [1],1517
same,"Synergy Volume, terbinafine + one milbemycin (FEPI, not named)","C. albicans, wt",2790
same,"Synergy Volume, terbinafine + one milbemycin (FEPI, not named)","C. glabrata, wt",478
same,MIC,[10]; read-out: Terbinafine MIC,128 µg/mL
same,MIC,"C. krusei YEM-71; YEM71, read-out: Terbinafine MIC",128 µg/mL
same,MIC,[15]; read-out: Terbinafine MIC,128 µg/mL
same,"Synergy Volume, terbinafine + one milbemycin (FEPI, not named)",[16],1386
same,"Synergy Volume, terbinafine + one milbemycin (FEPI, not named)","C. glabrata, CgCDR up",392
same,"Synergy Volume, terbinafine + one milbemycin (FEPI, not named)",[17],169
same,MIC,[20]; read-out: Terbinafine MIC,2 µg/mL
same,MIC,[26]; read-out: Terbinafine MIC,4 µg/mL
same,MIC,[29]; read-out: Terbinafine MIC,128 µg/mL
